Assay results published in patent publication US20050107353A1, “Methods of treating lower urinary tract disorders using losigamone” (Dynogen Pharmaceuticals, Inc., priority 2003, published 2005).
“Also recorded” adds a separate entry of the source.

Tests used:
[1] = system: activity dependent sodium currents in bladder DRG neurons; assay: Use-dependent effect on sodium currents in bladder DRG neurons, slow versus fast stimulation; type: cell-based, rat; conditions: 100 μM, steps from −50 to 0 mV, three neurons
Method: Labeling of bladder afferent neurons: Adult female Sprague-Dawley rats (150-300 g) were deeply anesthetized with pentobarbital anesthesia and placed on isoflurane maintenance anesthesia. A ventral midline incision was made through the abdominal skin and musculature, exposing the urinary bladder. Five injections of the fluorescent dye Di-I (5 μl each of 25 mg/ml Di-I in DMSO) or Fast Blue (4% w/v) were made into the bladder smooth muscle wall to label primary afferent fibers innervating the bladder. The area was rinsed with sterile saline to eliminate nonspecific spread of dye, and the incision was closed. Rats recovered for 5-12 days to allow for transport of fluorescent dye from distal terminals to the cell somata of dorsal root ganglion (DRG) neurons. Labeled neurons were identified in vitro using fluorescence optics. […]
Sodium currents were recorded from DRG neurons using standard electrophysiologic protocols. […] Currents were recorded using a patch-clamp amplifier and digitized at 3-10 kHz for acquisition. Neuronal input resistance and membrane capacitance were determined from the amplitude and kinetics of the current response to a voltage pulse from a holding potential of −50 mV. […] For all cell types, baseline responses were recorded for a minimum of 10 min to ensure that the kinetics of the response was stable. […]

[2] = system: acetic acid-induced reduction of bladder capacity; assay: Dilute acetic acid model: bladder capacity by filling cystometry during continuous intravesical acetic acid irritation; type: in vivo, rat; conditions: intraduodenal; for effect on bladder capacity (reversal of acetic acid-induced reduction): increasing doses, rats during continuous irritation
Excerpt: The objective of the current study was to determine the effect of TTX-R sodium channel modulators or use dependent sodium channel modulators on the ability to reverse the reduction in bladder capacity seen following continuous infusion of dilute acetic acid, a commonly used model of lower urinary tract disorders including overactive bladder.
Animal Preparation: Female rats (250-275 g BW) were anesthetized with urethane (1.2 g/kg) and a saline-filled catheter (PE-50) was inserted into either the jugular vein for intravenous (i.v.; saline vehicle) or the proximal duodenum for intraduodenal (i.d.; distilled water or 10% Tween 80 in saline as vehicle) drug administration. Via a midline lower abdominal incision, a flared-tipped PE 50 catheter was inserted into the bladder dome for bladder filling and pressure recording and secured by ligation. The abdominal cavity was moistened with saline and closed by covering with a thin plastic sheet in order to maintain access to the bladder for emptying purposes. Fine silver or stainless steel wire electrodes were inserted into the external urethral sphincter (EUS) percutaneously for electromyography (EMG).
Experimental Design: Saline was continuously infused at a rate of 0.055 ml/min via the bladder filling catheter for ≧60 minutes to obtain a baseline of lower urinary tract activity (continuous cystometry; CMG). Following the control period, a 0.25% acetic acid solution in saline was infused into the bladder at the same flow rate to induce bladder irritation. Following 30 minutes of AA infusion, 3 vehicle injections were made at 20 minute intervals to determine vehicle effects, if any. Subsequently, increasing doses (2-5) of Na^+ channel blocking compound were administered intravenously or intraduodenaly at half-log order increments at 30 or 60 minute intervals in order to construct a cumulative dose-response relationship. At the end of the control saline cystometry period, the third vehicle, and 20-50 minutes following each subsequent treatment, the infusion pump was stopped, the bladder was emptied by fluid withdrawal via the infusion catheter and a single filling cystometrogram was performed at the same flow rate in order to determine changes in bladder capacity caused by the irritation protocol and subsequent intravenous or intraduodenal drug administration.
Data were analyzed by non-parametric ANOVA for repeated measures (Friedman Test) with Dunn's Multiple Comparison test. All comparisons were made from the last vehicle measurement (AA/Veh 3) or the lowest dose of drug. P<0.050 was considered significant.

[3] = molecular target: T1, TTX-R sodium currents in bladder afferent neurons (Rattus norvegicus, UniProt Q62968); assay: Bladder sensory neuron sodium channel current model: whole cell patch-clamp of TTX-R sodium currents; type: cell-based
T1 construct: Whole cell patch-clamp recordings were obtained from dye-labeled DRG neurons; endogenous in cells; host or cells: primary dissociated L6/S1 dorsal root ganglion neurons of Sprague-Dawley rats, dye-labelled bladder afferents
Method: Labeling of bladder afferent neurons: Adult female Sprague-Dawley rats (150-300 g) were deeply anesthetized with pentobarbital anesthesia and placed on isoflurane maintenance anesthesia. A ventral midline incision was made through the abdominal skin and musculature, exposing the urinary bladder. Five injections of the fluorescent dye Di-I (5 μl each of 25 mg/ml Di-I in DMSO) or Fast Blue (4% w/v) were made into the bladder smooth muscle wall to label primary afferent fibers innervating the bladder. The area was rinsed with sterile saline to eliminate nonspecific spread of dye, and the incision was closed. Rats recovered for 5-12 days to allow for transport of fluorescent dye from distal terminals to the cell somata of dorsal root ganglion (DRG) neurons. Labeled neurons were identified in vitro using fluorescence optics.
Neuronal cultures: Di-I injected rats were euthanized with pentobarbital anesthesia. Lumbar (L6) and sacral (S1) DRG were dissected from the vertebral column and placed in Dulbecco's modified Eagles medium (DMEM) containing 0.3% collagenase B for 60 min at 37° C. The cell solution was exchanged for a 0.25% trypsin in calcium/magnesium-free Dulbecco's phosphate-buffered saline solution, and further digested for 30 min at 37° C. Following a wash in fresh DMEM, ganglia were dissociated by a series of triturations using fire-polished Pasteur pipettes. DRG cells were plated on polylysine-treated glass coverslips. Cells were plated at a density of 0.5 DRG per coverslip in 1 ml DMEM supplemented with 10% FBS, NGF, and 100 U/ml penicillin/streptomycin. All experimental procedures involving rats were conducted under a protocol approved by an Institutional Animal Care and Use Committee. Small variations in the concentrations of reagents, incubation times, etc. may occur and are expected to give similar results.
In most experiments, neurons were incubated in culture medium containing the FITC-labeled lectin BSI-B4 (IB4, […]) at 37° C. for 5 min before recording. The coverslip was washed with extracellular recording solution for 1 min before being placed in a recording chamber mounted on the stage of an inverted microscope equipped with fluorescence optics.
Electrophysiology: Electrophysiologic evaluation of neurons occurred within 4-48 h of plating. Whole cell patch-clamp recordings were obtained from dye-labeled DRG neurons. Recordings were obtained in an extracellular recording solution (pH 7.4, 295-320 mosM) consisting of (in mM) 140 NaCl, 3 KCl, 1 CaCl2, 1 MgCl2, 0.1 CdCl2, 10 HEPES, and 10 glucose. Patch-clamp electrodes were pulled from borosilicate glass and fire polished to 2-6 MOhm tip resistance. The internal pipette recording solution (pH 7.3, 290-300 mosM) consisted of (in mM) 140 CsCl, 10 NaCl, 1 EGTA, and 10 HEPES. Tetrodotoxin (TTX, 0.3 uM) was included in the extracellular solution to block TTX-sensitive sodium currents. Variations in the concentrations and types of reagents used for solutions may occur and are expected to give similar results.
Sodium currents were recorded from DRG neurons using standard electrophysiologic protocols. Neurons were typically voltage-clamped at −50 mV. Currents were recorded using a patch-clamp amplifier and digitized at 3-10 kHz for acquisition. Neuronal input resistance and membrane capacitance were determined from the amplitude and kinetics of the current response to a voltage pulse from a holding potential of −50 mV. Series resistance was compensated 75-95% for all recordings. Leak currents were cancelled online using a standard P/4 protocol. Depolarizing steps from −90, −70, or −50 mV to 0 mV were delivered every 5 or 30 sec during drug application to determine the effects of drugs on sodium currents. For all cell types, baseline responses were recorded for a minimum of 10 min to ensure that the kinetics of the response was stable. A wash out or recovery period usually followed the drug application period. […]

T1 sequence (Q62968 whole entry): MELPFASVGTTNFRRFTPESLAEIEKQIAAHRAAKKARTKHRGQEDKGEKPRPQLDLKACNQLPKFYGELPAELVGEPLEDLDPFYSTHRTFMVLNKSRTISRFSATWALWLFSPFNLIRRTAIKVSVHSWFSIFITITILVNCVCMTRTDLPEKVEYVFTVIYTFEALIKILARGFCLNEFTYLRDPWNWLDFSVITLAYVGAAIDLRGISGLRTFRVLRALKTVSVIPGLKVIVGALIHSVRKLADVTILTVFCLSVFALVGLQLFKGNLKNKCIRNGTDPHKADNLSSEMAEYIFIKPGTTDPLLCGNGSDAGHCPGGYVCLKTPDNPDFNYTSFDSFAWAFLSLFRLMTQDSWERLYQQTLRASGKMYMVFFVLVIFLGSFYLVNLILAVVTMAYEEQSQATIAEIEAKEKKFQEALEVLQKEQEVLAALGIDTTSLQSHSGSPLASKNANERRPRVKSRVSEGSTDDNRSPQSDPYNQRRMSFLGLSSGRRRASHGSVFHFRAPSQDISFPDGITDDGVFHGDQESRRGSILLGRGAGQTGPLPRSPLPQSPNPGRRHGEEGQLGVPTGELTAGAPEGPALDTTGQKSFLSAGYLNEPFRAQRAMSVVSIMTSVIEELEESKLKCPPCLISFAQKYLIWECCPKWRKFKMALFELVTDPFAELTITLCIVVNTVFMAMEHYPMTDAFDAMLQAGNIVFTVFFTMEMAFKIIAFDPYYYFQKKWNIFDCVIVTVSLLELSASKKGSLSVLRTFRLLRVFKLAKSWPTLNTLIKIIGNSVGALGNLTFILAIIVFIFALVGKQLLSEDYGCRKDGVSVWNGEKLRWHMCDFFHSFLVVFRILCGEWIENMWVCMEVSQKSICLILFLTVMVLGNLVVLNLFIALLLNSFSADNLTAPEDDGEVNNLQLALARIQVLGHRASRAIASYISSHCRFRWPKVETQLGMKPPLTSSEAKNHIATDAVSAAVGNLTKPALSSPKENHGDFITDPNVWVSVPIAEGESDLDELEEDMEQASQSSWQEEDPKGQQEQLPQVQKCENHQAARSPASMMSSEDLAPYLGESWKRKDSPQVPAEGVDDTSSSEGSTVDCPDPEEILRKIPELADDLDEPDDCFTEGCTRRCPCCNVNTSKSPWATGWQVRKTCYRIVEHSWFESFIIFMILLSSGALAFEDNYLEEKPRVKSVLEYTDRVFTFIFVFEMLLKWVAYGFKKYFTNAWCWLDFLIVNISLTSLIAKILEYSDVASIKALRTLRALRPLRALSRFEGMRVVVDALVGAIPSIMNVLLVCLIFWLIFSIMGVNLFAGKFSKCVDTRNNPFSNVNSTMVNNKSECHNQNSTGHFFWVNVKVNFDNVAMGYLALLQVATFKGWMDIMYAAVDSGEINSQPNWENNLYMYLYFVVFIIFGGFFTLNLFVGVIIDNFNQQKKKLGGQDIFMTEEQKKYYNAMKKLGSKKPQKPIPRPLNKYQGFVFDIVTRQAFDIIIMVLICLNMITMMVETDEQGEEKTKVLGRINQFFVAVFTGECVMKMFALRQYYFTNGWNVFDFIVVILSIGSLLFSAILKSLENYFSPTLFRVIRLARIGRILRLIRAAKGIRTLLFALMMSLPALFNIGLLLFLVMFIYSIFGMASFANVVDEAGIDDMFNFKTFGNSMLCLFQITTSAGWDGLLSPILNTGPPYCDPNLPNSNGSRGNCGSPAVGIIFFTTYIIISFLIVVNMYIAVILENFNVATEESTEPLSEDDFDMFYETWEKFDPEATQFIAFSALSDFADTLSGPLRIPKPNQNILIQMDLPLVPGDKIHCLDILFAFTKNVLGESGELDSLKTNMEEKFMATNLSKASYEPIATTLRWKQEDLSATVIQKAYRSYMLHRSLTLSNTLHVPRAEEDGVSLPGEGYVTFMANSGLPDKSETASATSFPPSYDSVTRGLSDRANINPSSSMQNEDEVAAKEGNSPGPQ

| Structure (SMILES) | peak sodium current amplitude, fast (17 Hz) versus slow (0.2 Hz) stimulation [1] | post-test: reversal of bladder capacity reduction ([2]; 30 mg/kg dose, rats) | effect on bladder capacity (reversal of acetic acid-induced reduction) [2] | effect on bladder capacity (reversal of acetic acid-induced reduction) ([2]; listed as ralfinamide) | effect on inward TTX-R sodium current ([3]; 100 μM bath application, labeled bladder afferent neuron) | peak TTX-R sodium current ([3]; 100 μM, three neurons, holding potential −50 mV, pulse to 0 mV) |
| --- | --- | --- | --- | --- | --- | --- |
| Nc1nnc(-c2cccc(Cl)c2Cl)c(N)n1 [Lamotrigine, 6-(2,3-Dichlorophenyl)-1,2,4-triazine-3,5-diamine] | decreased to a greater extent under fast stimulation conditions |  |  |  |  |  |
| C[C@H](NCc1ccc(OCc2ccccc2F)cc1)C(N)=O [Ralfinamide, (+)-2(S)-[4-(2-Fluorobenzyloxy)benzylamino]propionamide] |  | statistically significant reversal of bladder capacity reduction | capable of partially reversing the reduction in bladder capacity caused by acetic acid in a dose-dependent fashion; also recorded: dose-dependent and statistically significant reversal | dose-dependent, statistically significant increases in bladder capacity | blocked the current | 36±6 % of control |
